According to US4582845A, “Pharmaceutical composition for injection” (Sumitomo Pharmaceuticals Co., Ltd., priority 1980, dated 1986):
Converted amounts (≈) assume the structure as drawn.

Key:
Format in all cases: physicochemical
Solubility in water = conditions: 25° C., as free base form
[1] = Coloration of Compound A on exposure to oxygen, heat or light
[2] = Solubility in solutions of basic substances (Experimental Example 7)
Protocol: (§1) Excess amounts of the Compound A were dispersed in aqueous solutions containing various surfactants and additives, respectively. In each case, the solubility of the compound was determined by measuring the light absorbance at 277 nm with the filtrate. For non-aqueous vehicles marked with *, the corresponding solubility of the compound was judged by eye-measurement.
Using the same procedures as stated in Experimental Example 6, solubility measurements were carried out.

[3] = Solubility in aqueous solutions of surfactants/additives and non-aqueous vehicles (Experimental Example 6)
Protocol: as §1

Structure (SMILES): NC(=O)c1nc[nH]c1O [Compound A, 4-carbamoyl-5-hydroxyimidazole]
- solubility (Solubility in water): ~4700 µg/mL (≈ 37 mM)
- coloration / instability [1]: so unstable that it is easily colored upon exposure to oxygen, heat, or light
- solubility ([2]; pH 8.2, 5% L-lysine, pH of solvent 8.20): 10700 µg/mL (≈ 84.2 mM)
- solubility ([2]; pH 8.42, aqueous buffer, NaHCO3-Na2CO3 buffer, pH of solvent 8.42): 26700 µg/mL (≈ 210 mM)
- solubility ([2]; pH 8.44, 5% borax, pH of solvent 8.44): 22200 µg/mL (≈ 175 mM)
- solubility ([2]; pH 8.5, 0.5% NaOH, pH of solvent 8.50): 21400 µg/mL (≈ 168 mM)
- solubility ([2]; pH 8.56, 5% trishydroxy methylamino methane, pH of solvent 8.56): 25700 µg/mL (≈ 202 mM)
- solubility ([2]; pH 8.64, 1% ethanolamine, pH of solvent 8.64): 24900 µg/mL (≈ 196 mM)
- solubility ([2]; pH 8.69, 5% L-arginine, pH of solvent 8.69): 33500 µg/mL (≈ 264 mM)
- solubility ([3]; 5% amycol no. 1): 5100 µg/mL (≈ 40.1 mM)
- solubility ([3]; 5% ethylurea): 5600 µg/mL (≈ 44.1 mM)
- solubility ([3]; 5% levulinic acid): 6300 µg/mL (≈ 49.6 mM)
- solubility ([3]; 5% nicotinic amide): 7200 µg/mL (≈ 56.6 mM)
- solubility ([3]; 5% polyoxyethylene hydrogenated castor oil, organic solvent or mixture): 4500 µg/mL (≈ 35.4 mM)
- solubility ([3]; 5% polyoxyethylene sorbitan monooleate): 4600 µg/mL (≈ 36.2 mM)
- solubility ([3]; 5% sodium lauryl sulfate): 4700 µg/mL (≈ 37 mM)
- solubility ([3]; 5% sodium salicylate): 6500 µg/mL (≈ 51.1 mM)
- solubility ([3]; 5% tartaric acid): 7000 µg/mL (≈ 55.1 mM)
- solubility ([3]; 10% mannitol): 4600 µg/mL (≈ 36.2 mM)
- Solubility (in words) ([3]; 10% sodium deoxycholate): white gel
- solubility ([3]; corn oil, organic solvent or mixture): < 2000 µg/mL
- solubility ([3]; cotton seed oil, organic solvent or mixture): < 2000 µg/mL
- solubility ([3]; ethanol, organic solvent or mixture): < 2000 µg/mL
- solubility ([3]; glycerine, organic solvent or mixture): ~3000 µg/mL (≈ 23.6 mM)
- solubility ([3]; n,n-dimethylacetamide, organic solvent or mixture): < 2000 µg/mL
- solubility ([3]; polyethylene glycol, organic solvent or mixture): < 2000 µg/mL
- solubility ([3]; propylene glycol, organic solvent or mixture): ~5000 µg/mL (≈ 39.3 mM)
- solubility ([3]; saturated aspartic acid): 5400 µg/mL (≈ 42.5 mM)
- Solubility (in words) ([3]; saturated gentisic acid): white gel
- solubility ([3]; saturated glutamic acid): 5300 µg/mL (≈ 41.7 mM)
- solubility ([3]; sesame oil, organic solvent or mixture): < 2000 µg/mL
- solubility ([3]; water): 4700 µg/mL (≈ 37 mM)
